How the values were obtained:
LAG-3 [1] = test: Content of LAG-3 in CLL cells, ELISA with human lymphocyte activation gene 3 detection kit; type: cell-based; conditions: 48 h
Protocol: (§1) CLL cells and JurkatE6-1 cells in exponential phase of growth with good conditions were inoculated in 6 well plate at a concentration of 5×10^5/ml. Each kind of cells were set four groups, and each group has three repeat holes for administration. Amongst, three chlorogenic acid groups received the drug dissolved in blank 1640 medium (1 mL) at the desired concentration, while the blank control group received the same volume of blank 1640 medium. [table] In this example, by ELISA experiment, the activity of LAG-3 in cells of each group was determined using human lymphocyte activation gene 3 detection kit. After cells of each group acted with corresponding drugs for 48 h, cell culture fluid of each group was collected and divided into two parts. The protein of one part was quantitated using BCA method, and the activity of LAG-3 in cells of each group was determined using human lymphocyte activation gene 3 detection kit, to calculate the content of LAG-3 in each group.

LAG-3 [2] = test: Content of LAG-3 in JurkatE6-1 cells, ELISA with human lymphocyte activation gene 3 detection kit; type: cell-based; conditions: 48 h
Protocol: as §1

LAG-3 gene [3] = test: Expression of LAG-3 gene in CLL cells by RT-PCR; type: cell-based, human; conditions: 48 h, vs blank control group (*p<0.05)
Protocol: (§2) CLL cells and JurkatE6-1 cells in exponential phase of growth with good conditions were inoculated in 6 well plate at a concentration of 5×10^5/ml. Each kind of cells were set four groups, and each group has three repeat holes for administration. Amongst, three chlorogenic acid groups received the drug dissolved in blank 1640 medium (1 mL) at the desired concentration, while the blank control group received the same volume of blank 1640 medium.
(§3) Using RNA prep Pure cultured cell/bacteria total RNA extraction kit (centrifugal column), total RNA was extracted from cells, and the operative procedures were carried out as the instructions. The detailed extraction procedures are briefly described as follows:
(§4) Using cDNA first strand synthesis kit and the resultant RNA solution by above extraction, the corresponding first strand cDNA was synthesized. The detailed reverse transcription procedures were carried out according to the instructions, that is briefly described as follows:
(§5) Because EvaGreen fluorescent dye can produce strong fluorescence when binding with the double-stranded DNA, the total amount of DNA formed by reaction can be obtained by detecting the final fluorescence intensity. To the test tube, were added fluorescent dye, cDNA product synthesized in steps (1) and (2), LAG-3 primer (Forward primer SEQ ID NO: 1 5′-[…]-3′, downstream primer SEQ ID NO: 2 5′-[…]-3′), and well mixed, then subjected to RT-PCR measurement. Amongst, […] group was set for each sample for calculating the relative magnitude, to perform the relative quantitation.

LAG-3 gene [4] = test: Expression of LAG-3 gene in JurkatE6-1 cells by RT-PCR; type: cell-based, human; conditions: 48 h, vs blank control group (*p<0.05)
Protocol: as §2, §3, §4, §5

LAG-3 protein = test: Immunohistochemistry of LAG-3 protein expression in in situ lesion of GL261 glioma mice; type: in vivo, C57BL/6 mice; conditions: 7 days, chlorogenic acid 40 mg/kg intraperitoneal, temozolomide 20 mg/kg oral, saline control 69%
Protocol: GL261 glioma cells in exponential phase of growth were prepared as GL261 single cell suspension at a concentration of 5×10^5/μL. After anesthetized with 0.75% pentobarbital sodium at 6 μL/g, the hair at the puncture site was stripped, and the heads of mice were fixed with ALC-H mouse brain stereotactic apparatus for longitudinal incision of scalp. […] GL261 single cell suspension was injected using micro pump at 2.5 μL/min, and the pinpoint was sealed with bone wax, then the incision of scalp was carefully sutured. Totally, 35 mice were inoculated, and the remained 5 mice were normal. The dead mice were removed, and C57BL/6 mice inoculated with GL261 glioma cells were randomly divided to 3 groups, including the saline control group (NC group), chlorogenic acid injection group (CA group), and temozolomide (TMZ) positive control group. Amongst, CA group is intraperitoneally injected with 40 mg/kg chlorogenic acid everyday, NC group is injected with the same volume of saline, and TMZ treatment group orally takes 20 mg/kg temozolomide. […]
After completion of experiment, in situ lesion of each group mice was cut, while the brain tissue of 5 remained normal mice mentioned in step 2.2 was cut. […] The immunohistochemical results were analyzed by semiquantitative method, and finally, the expression rate of LAG-3 protein in different tissue sample was subjected to statistical analysis.

[5] = system: CD3+T lymphocytes and CD4+T lymphocytes; test: T cell proliferation in peripheral blood of GL261 glioma mice; type: in vivo, C57BL/6 mice; conditions: 40 mg/kg intraperitoneal, 7 days, vs saline control group
Protocol: GL261 glioma cells in exponential phase of growth were prepared as GL261 single cell suspension at a concentration of 5×10^5/μL. After anesthetized with 0.75% pentobarbital sodium at 6 μL/g, the hair at the puncture site was stripped, and the heads of mice were fixed with ALC-H mouse brain stereotactic apparatus for longitudinal incision of scalp. […] GL261 single cell suspension was injected using micro pump at 2.5 μL/min, and the pinpoint was sealed with bone wax, then the incision of scalp was carefully sutured. Totally, 35 mice were inoculated, and the remained 5 mice were normal. The dead mice were removed, and C57BL/6 mice inoculated with GL261 glioma cells were randomly divided to 3 groups, including the saline control group (NC group), chlorogenic acid injection group (CA group), and temozolomide (TMZ) positive control group. Amongst, CA group is intraperitoneally injected with 40 mg/kg chlorogenic acid everyday, NC group is injected with the same volume of saline, and TMZ treatment group orally takes 20 mg/kg temozolomide. [table] […] Detecting the proliferation status of T lymphocytes may reflect the strong/weak inhibitory action of LAG-3. […]

[6] = high dose 100 μM, vs blank control group (*p<0.05)
[7] = middle dose 50 μM, vs blank control group (*p<0.05)

Structure (SMILES) | content of LAG-3 (LAG-3 [1]; [6]) | content of LAG-3 (LAG-3 [1]; low dose 10 μM) | content of LAG-3 (LAG-3 [1]; [7]) | content of LAG-3 (LAG-3 [2]; [6]) | content of LAG-3 (LAG-3 [2]; low dose 10 μM) | content of LAG-3 (LAG-3 [2]; [7]) | expression level of LAG-3 gene (LAG-3 gene [3]; high dose 100 μM) | expression level of LAG-3 gene (LAG-3 gene [3]; low dose 10 μM) | expression level of LAG-3 gene (LAG-3 gene [3]; middle dose 50 μM) | expression level of LAG-3 gene (LAG-3 gene [4]; high dose 100 μM) | expression level of LAG-3 gene (LAG-3 gene [4]; low dose 10 μM) | expression level of LAG-3 gene (LAG-3 gene [4]; middle dose 50 μM) | average percentage of LAG-3 protein high expression (LAG-3 protein) | percentage of CD3+T lymphocytes in peripheral blood lymphocytes [5] | percentage of CD4+T lymphocytes in peripheral blood lymphocytes [5]
O=C(/C=C/c1ccc(O)c(O)c1)O[C@@H]1C[C@](O)(C(=O)O)C[C@@H](O)[C@H]1O [chlorogenic acid, 3-o-caffeoylquinic acid] | obviously different | lowered | obviously different | obviously different | lowered | obviously different | obviously different | obviously different | obviously different | obviously reduced | obviously reduced | obviously reduced | 23.78% | obviously promote the proliferation | obviously promote the proliferation
Cn1nnc2c(C(N)=O)ncn2c1=O [temozolomide, reference compound] |  |  |  |  |  |  |  |  |  |  |  |  | 44.83% |  | 

— patent publication US11135160B2, “Use of chlorogenic acid in preparing pharmaceuticals for treatment of LAG-3-mediated disease” (SICHUAN JIUZHANG BIOLOGICAL SCIENCE AND TECHNOLOGY CO. LTD, priority 2016, dated 2021)
